# Reference: ChEMBL document CHEMBL3885881, “DrugMatrix”
# Species: Rattus norvegicus
# Experiment: DrugMatrix - Regimen: Daily Repeat
# Format: toxicity, organism-based, Sprague-Dawley
# Design: regimen Daily Repeat, gender Male, age 6-8 weeks
# Details: in vivo, po, route oral GAVAGE, vehicle .5 % CMC; for ABSOLUTE BASOPHIL / ABSOLUTE EOSINOPHIL / ABSOLUTE LYMPHOCYTE / ABSOLUTE MONOCYTE / ABSOLUTE SEGMENTED NEUTROPHIL / BASOPHIL / EOSINOPHIL / ERYTHROCYTE COUNT / HEMATOCRIT / HEMOGLOBIN / LEUKOCYTE COUNT / LYMPHOCYTE / MEAN CORPUSCULAR HEMOGLOBIN / MEAN CORPUSCULAR HEMOGLOBIN CONCENTRATION / MEAN CORPUSCULAR VOLUME / MONOCYTE / NEUTROPHIL / NUCLEATED RED BLOOD CELLS / PLATELET COUNT: tissue Blood; for ALANINE AMINOTRANSFERASE / ALBUMIN / ALKALINE PHOSPHATASE / ASPARTATE AMINOTRANSFERASE / BLOOD UREA NITROGEN / CARBON DIOXIDE / CHLORIDE / CHOLESTEROL / CREATINE PHOSPHOKINASE / CREATININE / GLUCOSE / LACTATE DEHYDROGENASE / LIPASE / PHOSPHORUS / POTASSIUM / SODIUM / TOTAL BILIRUBIN / TOTAL PROTEIN / URIC ACID: tissue Plasma
# [1] = 1200 mg/kg, 120 h, dose level High, time 5 day
# [2] = […], 72 h, dose 3.3 mg/Kg, dose level Low, time 3 day
# [3] = […], 120 h, dose 3.3 mg/Kg, dose level Low, time 5 day
smiles,measurement,setting,value
CCC[C@@H]1C[C@@H](C(=O)N[C@@H]([C@H]2O[C@H](SC)[C@H](O)[C@@H](O)[C@H]2O)[C@@H](C)O)N(C)C1 [LINCOMYCIN],ABSOLUTE BASOPHIL,[1],0 CELLS/uL
same,ABSOLUTE EOSINOPHIL,[1],0 CELLS/uL
same,ABSOLUTE LYMPHOCYTE,[1],15154 CELLS/uL
same,ABSOLUTE MONOCYTE,[1],0 CELLS/uL
same,ABSOLUTE SEGMENTED NEUTROPHIL,[1],1379.33 CELLS/uL
same,BASOPHIL,[1],0%
same,EOSINOPHIL,[1],0%
same,ERYTHROCYTE COUNT,[1],5.63 x10E6/uL
same,HEMATOCRIT,[1],35.37%
same,HEMOGLOBIN,[1],14.33 G/DL
same,LEUKOCYTE COUNT,[1],16.53 x10E3/uL
same,LYMPHOCYTE,[1],91.67%
same,MEAN CORPUSCULAR HEMOGLOBIN,[1],25.5 pg
same,MEAN CORPUSCULAR HEMOGLOBIN CONCENTRATION,[1],40.53 G/DL
same,MEAN CORPUSCULAR VOLUME,[1],62.9 fL
same,MONOCYTE,[1],0%
same,NEUTROPHIL,[1],8.33%
same,NUCLEATED RED BLOOD CELLS,[1],0 /100WBC
same,PLATELET COUNT,[1],1331 x10E3/uL
same,ALANINE AMINOTRANSFERASE,[1],58.33 u/L
same,ALBUMIN,[1],4.13 G/DL
same,ALKALINE PHOSPHATASE,[1],343.67 u/L
same,ASPARTATE AMINOTRANSFERASE,[1],92.33 u/L
same,BLOOD UREA NITROGEN,[1],18.33 mg/dL
same,CARBON DIOXIDE,[1],25 mmol/L
same,CHLORIDE,[1],100.67 MEQ/L
same,CHOLESTEROL,[1],73.67 mg/dL
same,CREATINE PHOSPHOKINASE,[1],558 u/L
same,CREATININE,[1],0.27 mg/dL
same,GLUCOSE,[1],137 mg/dL
same,LACTATE DEHYDROGENASE,[1],505.33 u/L
same,LIPASE,[1],12 u/L
same,PHOSPHORUS,[1],12.77 mg/dL
same,POTASSIUM,[1],6.92 MEQ/L
same,SODIUM,[1],143.1 MEQ/L
same,TOTAL BILIRUBIN,[1],0.17 mg/dL
same,TOTAL PROTEIN,[1],6.1 G/DL
same,URIC ACID,[1],1.63 mg/dL
same,ABSOLUTE BASOPHIL,[2],0 CELLS/uL
same,ABSOLUTE EOSINOPHIL,[2],46 CELLS/uL
same,ABSOLUTE LYMPHOCYTE,[2],14091.33 CELLS/uL
same,ABSOLUTE MONOCYTE,[2],108.67 CELLS/uL
same,ABSOLUTE SEGMENTED NEUTROPHIL,[2],1220.67 CELLS/uL
same,BASOPHIL,[2],0%
same,EOSINOPHIL,[2],0.33%
same,ERYTHROCYTE COUNT,[2],5.49 x10E6/uL
same,HEMATOCRIT,[2],34.5%
same,HEMOGLOBIN,[2],13.93 G/DL
same,LEUKOCYTE COUNT,[2],15.47 x10E3/uL
same,LYMPHOCYTE,[2],91%
same,MEAN CORPUSCULAR HEMOGLOBIN,[2],25.43 pg
same,MEAN CORPUSCULAR HEMOGLOBIN CONCENTRATION,[2],40.4 G/DL
same,MEAN CORPUSCULAR VOLUME,[2],63 fL
same,MONOCYTE,[2],0.67%
same,NEUTROPHIL,[2],8%
same,NUCLEATED RED BLOOD CELLS,[2],0 /100WBC
same,PLATELET COUNT,[2],1331.67 x10E3/uL
same,ALANINE AMINOTRANSFERASE,[2],53.67 u/L
same,ALBUMIN,[2],4.23 G/DL
same,ALKALINE PHOSPHATASE,[2],358.67 u/L
same,ASPARTATE AMINOTRANSFERASE,[2],85.33 u/L
same,BLOOD UREA NITROGEN,[2],15.67 mg/dL
same,CARBON DIOXIDE,[2],29.67 mmol/L
same,CHLORIDE,[2],101 MEQ/L
same,CHOLESTEROL,[2],72 mg/dL
same,CREATINE PHOSPHOKINASE,[2],274.33 u/L
same,CREATININE,[2],0.21 mg/dL
same,GLUCOSE,[2],154.67 mg/dL
same,LACTATE DEHYDROGENASE,[2],216.67 u/L
same,LIPASE,[2],9.67 u/L
same,PHOSPHORUS,[2],12.97 mg/dL
same,POTASSIUM,[2],7.32 MEQ/L
same,SODIUM,[2],144.13 MEQ/L
same,TOTAL BILIRUBIN,[2],0.2 mg/dL
same,TOTAL PROTEIN,[2],5.83 G/DL
same,URIC ACID,[2],2.13 mg/dL
same,ABSOLUTE BASOPHIL,[3],0 CELLS/uL
same,ABSOLUTE EOSINOPHIL,[3],0 CELLS/uL
same,ABSOLUTE LYMPHOCYTE,[3],14059.67 CELLS/uL
same,ABSOLUTE MONOCYTE,[3],0 CELLS/uL
same,ABSOLUTE SEGMENTED NEUTROPHIL,[3],1173.67 CELLS/uL
same,BASOPHIL,[3],0%
same,EOSINOPHIL,[3],0%
same,ERYTHROCYTE COUNT,[3],5.56 x10E6/uL
same,HEMATOCRIT,[3],34.53%
same,HEMOGLOBIN,[3],13.97 G/DL
same,LEUKOCYTE COUNT,[3],15.23 x10E3/uL
same,LYMPHOCYTE,[3],92.33%
same,MEAN CORPUSCULAR HEMOGLOBIN,[3],25.1 pg
same,MEAN CORPUSCULAR HEMOGLOBIN CONCENTRATION,[3],40.43 G/DL
same,MEAN CORPUSCULAR VOLUME,[3],62.13 fL
same,MONOCYTE,[3],0%
same,NEUTROPHIL,[3],7.67%
same,NUCLEATED RED BLOOD CELLS,[3],0 /100WBC
same,PLATELET COUNT,[3],1194.33 x10E3/uL
same,ALANINE AMINOTRANSFERASE,[3],57.33 u/L
same,ALBUMIN,[3],4.37 G/DL
same,ALKALINE PHOSPHATASE,[3],326 u/L
same,ASPARTATE AMINOTRANSFERASE,[3],107.67 u/L
same,BLOOD UREA NITROGEN,[3],17 mg/dL
same,CARBON DIOXIDE,[3],28 mmol/L
same,CHLORIDE,[3],100.33 MEQ/L
same,CHOLESTEROL,[3],76.67 mg/dL
same,CREATINE PHOSPHOKINASE,[3],786.33 u/L
same,CREATININE,[3],0.23 mg/dL
same,GLUCOSE,[3],160.67 mg/dL
same,LACTATE DEHYDROGENASE,[3],134.33 u/L
same,LIPASE,[3],9 u/L
same,PHOSPHORUS,[3],12.5 mg/dL
same,POTASSIUM,[3],6.98 MEQ/L
same,SODIUM,[3],144.77 MEQ/L
same,TOTAL BILIRUBIN,[3],0.17 mg/dL
same,TOTAL PROTEIN,[3],6.33 G/DL
same,URIC ACID,[3],2.3 mg/dL
